Reference: paper PMC8195987, “Structural basis for plazomicin antibiotic action and resistance” (Communications Biology, 2021)

Target: T1, AAC(2′)-Ia (Providencia stuartii, UniProt Q52424)
T1 construct: synthetic gene in pET-15b, E. coli BL21(DE3); N-terminal His-tag removed with thrombin; homodimer
Test: X-ray crystal structure
Format: binding
Conditions: product complex with acetylated plazomicin, 1.95 Å; formed from acetyl-CoA during crystallization; active site

T1 sequence (Q52424 whole entry): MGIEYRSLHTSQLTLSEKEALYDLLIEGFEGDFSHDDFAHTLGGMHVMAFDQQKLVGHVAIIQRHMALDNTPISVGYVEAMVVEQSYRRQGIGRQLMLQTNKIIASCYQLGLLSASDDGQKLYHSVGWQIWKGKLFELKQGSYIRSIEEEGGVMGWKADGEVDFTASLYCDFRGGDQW

CC(C)(COP(=O)(O)OP(=O)(O)OC[C@H]1O[C@@H](n2cnc3c(N)ncnc32)[C@H](O)[C@@H]1OP(=O)(O)O)[C@@H](O)C(=O)NCCC(=O)NCCS [CoA]
X-ray crystal structure: identified the enzymatically modified plazomicin and CoA in the active site
